Experimental data reported in patent US11738008B2, “N-methyl-D-aspartic acid receptor modulators” (Emory University, priority 2018, dated 2023).
Read-outs that look alike come from different tables or passages of the source.

How the values were obtained:
[1] = target: rat GluN1/GluN2D (Rattus norvegicus, UniProt P35439+Q62645); assay: Two-electrode voltage clamp recordings in Xenopus laevis oocytes, potentiation of GluN1/GluN2D; type: cell-based
Description: (§1) Xenopus laevis oocytes were purchased unfertilized from Ecocyte (Austin, Tex.). The oocytes were injected with mRNA to express recombinant rat GluN1/GluN2A, GluN1/GluN2B, GluN1/GluN2C, and GluN1/GluN2D and two-electrode voltage clamp (TEVC) recordings were performed. Drs. S. Heinemann (Salk Institute), S. Nakanishi (Kyoto University), and P. Seeburg (University of Heidelberg) provided the cDNAs for rat GluN1-1a (GenBank accession numbers U11418 and U08261, referred to as GluN1 henceforth), GluN2A (D13211), GluN2B (U11419), GluN2C (M91563), and GluN2D (D13213). GluN2C and GluN2D were altered according to literature precedent. […] To prevent the current increase typically seen during experiments with oocytes expressing GluN1/GluN2A receptors, the oocytes were either injected with 20 nL of 100 mM K-BAPTA (potassium 1,2-bis(o-aminophenoxy)ethane-N,N,N,N-tetraacetic acid) or pretreated with 50 μM BAPTA-AM (1,2-bis(o-aminophenoxy)ethane-N,N,N,N-tetraacetic acid tetraacetoxymethyl ester) for 10 minutes.

[2] = target: rat GluN1/GluN2D (Rattus norvegicus, UniProt Q62645); assay: as above; type: cell-based
Description: as §1

[3] = target: H2 (Homo sapiens, UniProt P25021); assay: NIMH PDSP radioligand binding, H2; settings: read-out: Radioligand binding in 10 μM compound (% control)
Description: (§2) The NIMH PDSP is Directed by Bryan L. Roth at the University of North Carolina at Chapel Hill and Project Officer Jamie Driscoll at NIMH, Bethesda Md., USA. Radioligand binding was measured in the presence of 10 μM 1180-420 and 1180-447. […] For experimental details please refer to the PDSP web site https://pdsp.unc.edu/ims/investigator/web/. Both 1180-420 and 1180-447 were also tested at AMPA, nicotinic acetylcholine, serotonin, GABA, and glycine ion channels using a two-electrode voltage clamp assay.
(§3) Receptor binding profiles of compound 1180-447 were generously provided by the National Institute of Mental Health's Psychoactive Drug Screening Program, Contract # HHSN-271-2013-00017-C(NIMH PDSP). The NIMH PDSP is directed by Bryan L. Roth at the University of North Carolina at Chapel Hill and Project Officer Jamie Driscoll at NIMH, Bethesda Md., USA. Radioligand binding was measured in the presence of 10 μM 1180-447. […] For experimental details please refer to the PDSP web site https://pdsp.unc.edu/ims/investigator/web/.
(§4) The NIMH PDSP is Directed by Bryan L. Roth at the University of North Carolina at Chapel Hill and Project Officer Jamie Driscoll at NIMH, Bethesda Md., USA. Radioligand binding was measured in the presence of 10 μM 1180-420. […] For experimental details please refer to the PDSP web site https://pdsp.unc.edu/ims/investigator/web/.

[4] = target: α1A (Homo sapiens, UniProt P35348); assay: NIMH PDSP radioligand binding, α1A; settings: read-out: Radioligand binding in 10 μM compound (% control)
Description: as §2, §3, §4

[5] = target: M3 (Homo sapiens, UniProt P20309); assay: NIMH PDSP radioligand binding, M3; settings: read-out: Radioligand binding in 10 μM compound (% control)
Description: as §2, §3, §4

[6] = target: M2 (Homo sapiens, UniProt P08172); assay: NIMH PDSP radioligand binding, M2; settings: read-out: Radioligand binding in 10 μM compound (% control)
Description: as §2, §3, §4

[7] = target: T1, 5-HT2A (Homo sapiens, UniProt P28223); assay: NIMH PDSP radioligand binding, 5-HT2A; settings: for remaining activity at 10 µM: read-out: Radioligand binding in 10 μM compound (% control)
T1 construct: NIMH PDSP (assay provider)
Description: as §2, §3, §4

[8] = target: T2, 5-HT1A (Homo sapiens, UniProt P08908); assay: NIMH PDSP radioligand binding, 5-HT1A; settings: read-out: Radioligand binding in 10 μM compound (% control)
T2 construct: NIMH PDSP (assay provider)
Description: as §2, §3, §4

[9] = target: β1 (Homo sapiens, UniProt P08588); assay: NIMH PDSP radioligand binding, β1; settings: read-out: Radioligand binding in 10 μM compound (% control)
Description: as §2, §3, §4

[10] = target: translocator protein (peripheral benzodiazepine site) (Homo sapiens, UniProt P30536); assay: NIMH PDSP radioligand binding, translocator protein; settings: read-out: Radioligand binding in 10 μM compound (% control)
Description: as §2, §3, §4

[11] = target: α2B (Homo sapiens, UniProt P18089); assay: NIMH PDSP radioligand binding, α2B; settings: read-out: Radioligand binding in 10 μM compound (% control)
Description: as §2, §3, §4

[12] = target: T3, 5-HT2B (Homo sapiens, UniProt P41595); assay: NIMH PDSP radioligand binding, 5-HT2B; settings: read-out: Radioligand binding in 10 μM compound (% control)
T3 construct: NIMH PDSP (assay provider)
Description: as §2, §3, §4

[13] = test system: α1β2γδ-nACh; assay: Off-target two-electrode voltage clamp assay, α1β2γδ-nACh; type: cell-based; settings: 10 μM, mean ± SEM
Description: as §2

[14] = target: T4, α1β2γ2-GABAA (Homo sapiens, UniProt P14867+P18507+P47870); assay: Off-target two-electrode voltage clamp assay, α1β2γ2-GABAA; type: cell-based; settings: 10 μM, mean ± SEM
T4 construct: expressed in transfected cells
Description: as §2

[15] = target: T5, 5-HT1E (Homo sapiens, UniProt P28566); assay: NIMH PDSP radioligand binding, 5-HT1E; settings: read-out: Radioligand binding in 10 μM compound (% control)
T5 construct: NIMH PDSP (assay provider)
Description: as §2, §3, §4

[16] = target: M4 (Homo sapiens, UniProt P08173); assay: NIMH PDSP radioligand binding, M4; settings: read-out: Radioligand binding in 10 μM compound (% control)
Description: as §2, §3, §4

[17] = test system: benzodiazapine rat brain site; assay: NIMH PDSP radioligand binding, benzodiazapine rat brain site
Description: as §2, §3, §4

[18] = target: T6, GluA1 (Homo sapiens, UniProt P42261); assay: Off-target two-electrode voltage clamp assay, GluA1; type: cell-based; settings: 10 μM, mean ± SEM
T6 construct: expressed in transfected cells
Description: as §2

[19] = target: T7, D3 (Homo sapiens, UniProt P35462); assay: NIMH PDSP radioligand binding, D3; settings: read-out: Radioligand binding in 10 μM compound (% control)
T7 construct: NIMH PDSP (assay provider)
Description: as §2, §3, §4

[20] = target: rat GluN1/GluN2C (Rattus norvegicus, UniProt Q00961); assay: Two-electrode voltage clamp recordings in Xenopus laevis oocytes, potentiation of GluN1/GluN2C; type: cell-based
Description: as §1

[21] = target: rat GluN1/GluN2C (Rattus norvegicus, UniProt P35439+Q00961); assay: as above; type: cell-based
Description: as §1

[22] = target: serotonin transporter (Homo sapiens, UniProt P31645); assay: NIMH PDSP radioligand binding, serotonin transporter; settings: read-out: Radioligand binding in 10 μM compound (% control)
Description: as §2, §3, §4

[23] = target: dopamine transporter (Homo sapiens, UniProt Q01959); assay: NIMH PDSP radioligand binding, dopamine transporter; settings: read-out: Radioligand binding in 10 μM compound (% control)
Description: as §2, §3, §4

[24] = target: T8, D1 (Homo sapiens, UniProt P21728); assay: NIMH PDSP radioligand binding, D1; settings: read-out: Radioligand binding in 10 μM compound (% control)
T8 construct: NIMH PDSP (assay provider)
Description: as §2, §3, §4

[25] = target: H4 (Homo sapiens, UniProt Q9H3N8); assay: NIMH PDSP radioligand binding, H4; settings: read-out: Radioligand binding in 10 μM compound (% control)
Description: as §2, §3, §4

[26] = target: H3 (Homo sapiens, UniProt Q9Y5N1); assay: NIMH PDSP radioligand binding, H3; settings: read-out: Radioligand binding in 10 μM compound (% control)
Description: as §2, §3, §4

[27] = maximal response, current without potentiator = 100%

T1 sequence (P28223 whole entry, species assumed): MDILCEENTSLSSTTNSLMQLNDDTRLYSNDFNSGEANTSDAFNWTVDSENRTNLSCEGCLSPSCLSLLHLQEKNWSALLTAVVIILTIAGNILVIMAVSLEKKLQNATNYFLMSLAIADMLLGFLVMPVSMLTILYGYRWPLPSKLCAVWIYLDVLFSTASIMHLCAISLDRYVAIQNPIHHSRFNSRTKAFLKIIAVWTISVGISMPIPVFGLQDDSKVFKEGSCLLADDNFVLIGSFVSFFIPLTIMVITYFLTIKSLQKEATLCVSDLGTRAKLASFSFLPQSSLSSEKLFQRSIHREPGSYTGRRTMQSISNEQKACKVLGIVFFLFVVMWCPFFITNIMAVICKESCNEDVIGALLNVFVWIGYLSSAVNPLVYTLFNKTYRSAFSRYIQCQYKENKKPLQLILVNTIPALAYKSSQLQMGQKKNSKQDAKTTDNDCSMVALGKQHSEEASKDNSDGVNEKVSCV
Sequence of M4 (P08173 whole entry): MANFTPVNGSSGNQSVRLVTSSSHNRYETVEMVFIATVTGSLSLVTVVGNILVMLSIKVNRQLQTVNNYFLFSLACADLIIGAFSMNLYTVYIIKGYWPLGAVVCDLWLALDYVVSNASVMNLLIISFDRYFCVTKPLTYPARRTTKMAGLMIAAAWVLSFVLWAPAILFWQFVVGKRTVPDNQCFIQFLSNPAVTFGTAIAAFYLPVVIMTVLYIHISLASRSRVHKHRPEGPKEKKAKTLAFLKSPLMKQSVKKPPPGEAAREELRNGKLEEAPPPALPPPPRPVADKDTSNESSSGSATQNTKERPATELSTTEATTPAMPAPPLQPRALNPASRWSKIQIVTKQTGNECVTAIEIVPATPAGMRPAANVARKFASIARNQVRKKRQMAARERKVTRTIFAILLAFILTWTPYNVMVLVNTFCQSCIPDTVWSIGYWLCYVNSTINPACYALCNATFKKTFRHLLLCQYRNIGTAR
Sequence of α2B (P18089 whole entry): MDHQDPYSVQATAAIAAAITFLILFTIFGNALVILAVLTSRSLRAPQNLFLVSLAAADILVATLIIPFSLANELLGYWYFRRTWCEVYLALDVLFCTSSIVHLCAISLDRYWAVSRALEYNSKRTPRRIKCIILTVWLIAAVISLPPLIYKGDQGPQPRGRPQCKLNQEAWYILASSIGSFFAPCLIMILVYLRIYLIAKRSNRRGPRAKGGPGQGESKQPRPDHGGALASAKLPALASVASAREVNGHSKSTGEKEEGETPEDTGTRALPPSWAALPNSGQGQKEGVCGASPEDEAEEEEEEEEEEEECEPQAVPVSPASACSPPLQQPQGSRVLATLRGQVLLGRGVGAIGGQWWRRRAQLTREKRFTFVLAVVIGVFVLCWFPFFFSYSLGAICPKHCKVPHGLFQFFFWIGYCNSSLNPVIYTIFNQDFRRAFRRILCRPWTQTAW
Sequence of dopamine transporter (Q01959 whole entry): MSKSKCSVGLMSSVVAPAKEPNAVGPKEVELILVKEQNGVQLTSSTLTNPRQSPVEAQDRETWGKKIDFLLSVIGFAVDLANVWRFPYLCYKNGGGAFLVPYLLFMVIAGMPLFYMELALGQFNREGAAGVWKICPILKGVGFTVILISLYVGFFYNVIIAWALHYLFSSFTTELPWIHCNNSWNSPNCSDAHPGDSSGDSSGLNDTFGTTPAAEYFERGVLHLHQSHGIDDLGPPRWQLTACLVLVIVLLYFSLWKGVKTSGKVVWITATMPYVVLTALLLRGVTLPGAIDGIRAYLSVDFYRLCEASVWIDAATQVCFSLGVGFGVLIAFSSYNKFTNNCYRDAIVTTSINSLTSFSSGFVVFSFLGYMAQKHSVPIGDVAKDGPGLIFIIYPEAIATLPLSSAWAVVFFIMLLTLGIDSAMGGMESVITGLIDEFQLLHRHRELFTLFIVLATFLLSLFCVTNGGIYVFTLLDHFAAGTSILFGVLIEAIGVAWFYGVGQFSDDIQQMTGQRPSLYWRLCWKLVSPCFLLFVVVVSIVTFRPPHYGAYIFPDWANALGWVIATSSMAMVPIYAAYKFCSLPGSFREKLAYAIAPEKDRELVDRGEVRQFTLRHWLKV
T2 sequence (P08908 whole entry, species assumed): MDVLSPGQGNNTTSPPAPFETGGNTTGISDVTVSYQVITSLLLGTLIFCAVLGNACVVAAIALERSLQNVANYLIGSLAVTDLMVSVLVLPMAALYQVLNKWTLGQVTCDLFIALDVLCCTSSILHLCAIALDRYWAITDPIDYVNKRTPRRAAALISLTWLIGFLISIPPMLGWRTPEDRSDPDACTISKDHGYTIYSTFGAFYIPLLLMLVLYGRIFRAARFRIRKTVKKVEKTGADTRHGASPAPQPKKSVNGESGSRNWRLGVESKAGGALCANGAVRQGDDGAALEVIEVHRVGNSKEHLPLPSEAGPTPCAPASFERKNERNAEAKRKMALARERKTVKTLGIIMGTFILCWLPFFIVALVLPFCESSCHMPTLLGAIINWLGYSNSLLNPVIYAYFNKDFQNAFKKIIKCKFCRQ
T4 sequence (P14867 28-456): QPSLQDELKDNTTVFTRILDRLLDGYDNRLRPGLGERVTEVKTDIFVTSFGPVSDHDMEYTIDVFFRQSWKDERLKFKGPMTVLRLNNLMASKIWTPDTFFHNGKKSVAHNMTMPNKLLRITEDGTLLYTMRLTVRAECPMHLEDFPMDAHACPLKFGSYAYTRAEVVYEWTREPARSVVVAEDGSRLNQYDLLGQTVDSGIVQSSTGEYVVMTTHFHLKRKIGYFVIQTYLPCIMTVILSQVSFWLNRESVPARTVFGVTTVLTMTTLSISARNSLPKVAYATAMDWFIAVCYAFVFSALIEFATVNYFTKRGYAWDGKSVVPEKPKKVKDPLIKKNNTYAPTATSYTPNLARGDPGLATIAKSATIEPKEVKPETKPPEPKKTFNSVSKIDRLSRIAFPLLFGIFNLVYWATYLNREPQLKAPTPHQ
T4 sequence (P47870 25-512 limits assumed): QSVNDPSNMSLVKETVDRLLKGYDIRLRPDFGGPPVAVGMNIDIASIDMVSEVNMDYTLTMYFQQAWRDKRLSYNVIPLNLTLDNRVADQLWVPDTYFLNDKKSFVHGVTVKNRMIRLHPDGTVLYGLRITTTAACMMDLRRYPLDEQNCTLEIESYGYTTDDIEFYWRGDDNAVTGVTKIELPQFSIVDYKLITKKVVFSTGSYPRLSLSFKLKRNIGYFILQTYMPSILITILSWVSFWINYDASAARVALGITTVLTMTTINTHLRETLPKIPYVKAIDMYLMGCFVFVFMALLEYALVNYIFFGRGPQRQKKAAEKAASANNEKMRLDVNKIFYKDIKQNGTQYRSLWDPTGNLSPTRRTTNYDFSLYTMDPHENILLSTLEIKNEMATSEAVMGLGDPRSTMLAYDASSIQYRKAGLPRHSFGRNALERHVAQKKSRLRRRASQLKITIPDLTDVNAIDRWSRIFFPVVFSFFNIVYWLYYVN
T4 sequence (P18507 39-475 limits assumed): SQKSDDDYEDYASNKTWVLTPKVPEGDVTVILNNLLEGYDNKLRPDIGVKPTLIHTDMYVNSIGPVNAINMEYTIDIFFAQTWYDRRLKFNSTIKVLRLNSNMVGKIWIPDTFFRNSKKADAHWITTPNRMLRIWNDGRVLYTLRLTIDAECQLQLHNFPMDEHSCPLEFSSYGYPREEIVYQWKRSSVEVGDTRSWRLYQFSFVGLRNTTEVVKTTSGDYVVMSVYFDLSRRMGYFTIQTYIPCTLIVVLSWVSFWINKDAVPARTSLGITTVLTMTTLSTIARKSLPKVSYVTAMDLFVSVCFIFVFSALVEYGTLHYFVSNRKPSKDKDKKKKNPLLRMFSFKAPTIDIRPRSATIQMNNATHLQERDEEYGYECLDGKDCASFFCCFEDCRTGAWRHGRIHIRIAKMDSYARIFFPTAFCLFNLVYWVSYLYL
Sequence of serotonin transporter (P31645 whole entry): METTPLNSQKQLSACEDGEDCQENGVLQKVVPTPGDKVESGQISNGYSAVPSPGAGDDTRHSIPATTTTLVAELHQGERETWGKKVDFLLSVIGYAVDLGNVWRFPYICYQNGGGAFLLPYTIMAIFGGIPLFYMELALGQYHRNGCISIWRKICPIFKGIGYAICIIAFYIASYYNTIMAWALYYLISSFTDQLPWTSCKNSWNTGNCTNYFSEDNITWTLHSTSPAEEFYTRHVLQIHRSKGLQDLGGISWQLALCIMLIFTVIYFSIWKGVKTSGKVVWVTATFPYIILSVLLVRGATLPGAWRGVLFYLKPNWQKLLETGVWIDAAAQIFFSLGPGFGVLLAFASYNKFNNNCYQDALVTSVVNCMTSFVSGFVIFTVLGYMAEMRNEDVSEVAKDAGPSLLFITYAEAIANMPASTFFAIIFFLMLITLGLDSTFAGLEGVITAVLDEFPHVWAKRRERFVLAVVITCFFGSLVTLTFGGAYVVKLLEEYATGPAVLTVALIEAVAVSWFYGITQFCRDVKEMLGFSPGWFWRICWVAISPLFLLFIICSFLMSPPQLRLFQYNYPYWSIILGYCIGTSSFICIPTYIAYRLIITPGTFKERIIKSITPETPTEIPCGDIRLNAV
T3 sequence (P41595 whole entry, species assumed): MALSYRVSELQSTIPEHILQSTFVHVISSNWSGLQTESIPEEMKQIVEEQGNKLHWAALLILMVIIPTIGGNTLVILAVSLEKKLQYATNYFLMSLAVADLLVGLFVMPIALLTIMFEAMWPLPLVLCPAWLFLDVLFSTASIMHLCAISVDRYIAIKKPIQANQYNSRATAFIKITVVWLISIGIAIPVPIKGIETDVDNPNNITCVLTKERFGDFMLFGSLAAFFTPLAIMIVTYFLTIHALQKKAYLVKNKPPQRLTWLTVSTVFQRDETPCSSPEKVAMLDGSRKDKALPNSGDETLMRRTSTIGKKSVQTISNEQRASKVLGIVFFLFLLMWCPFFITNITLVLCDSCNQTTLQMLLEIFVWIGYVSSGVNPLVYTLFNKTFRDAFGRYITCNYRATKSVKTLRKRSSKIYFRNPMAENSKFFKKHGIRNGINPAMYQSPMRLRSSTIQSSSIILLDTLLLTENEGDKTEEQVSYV

SMILES | remaining activity at 10 µM [3] [%] | remaining activity at 10 µM [4] [%] | remaining activity at 10 µM [5] [%] | remaining activity at 10 µM [6] [%] | remaining activity at 10 µM [7] [%] | remaining activity at 10 µM [8] [%] | remaining activity at 10 µM [9] [%] | remaining activity at 10 µM [10] [%] | remaining activity at 10 µM [11] [%] | remaining activity at 10 µM [12] [%] | % control response [13] [% control response] | % control response [14] [% control response] | remaining activity at 10 µM [15] [%] | remaining activity at 10 µM [16] [%] | Radioligand binding in 10 μM compound (% control) [17] [% control] | % control response [18] [% control response] | remaining activity at 10 µM [19] [%] | remaining activity at 10 µM [22] [%] | remaining activity at 10 µM [23] [%] | remaining activity at 10 µM [24] [%] | also measured
COc1ccc(OCC2c3cccn3CC(=O)N2Cc2cccc(C(F)(F)F)c2)cc1 (racemic) [1180-447, 1-((4-Methoxyphenoxy)methyl)-2-(3-(trifluoromethyl)benzyl)-1,2-dihydropyrrolo[1,2-a]pyrazin-3(4H)-one] | 103 | 97 | 87 | 90 | 49 | 101 | 80 | 84 | 94 | 78 | 78.5 ± 4.5 | 81.7 ± 7.5 | 80 | 100 | 88 | 96.8 ± 13.3 | 93 | 91 | 76 | 87 | EC50 ([1]; read-out: GluN2D pEC50 [95% CI] (converted)): 1580 nM; GluN2D (max) (%) [2]: (396) %; Ki ([7]; read-out: pKi values from non-linear regression of radioligand competition binding isotherms (converted)): 2000 nM; GluN2C (max) (%) [20]: (298) %; EC50 ([21]; read-out: GluN2C pEC50 [95% CI] (converted)): 1260 nM; remaining activity at 10 µM [25]: 107%; remaining activity at 10 µM [26]: 79%
COc1ccc(OCC2c3cccn3CCN2C(=O)c2cccc(Cl)c2)cc1 (centres unmarked) [1180-420, (3-Chlorophenyl)(1-((4-methoxyphenoxy)methyl)-3,4-dihydropyrrolo[1,2-a]pyrazin-2(1H)-yl)methanone] | 75 | 91 | 69 | 110 | 69 | 110 | 98 | 67 | 93 | 97 | 93.4 ± 15.5 | 81.4 ± 8.5 | 78 | 84 | 71 | 98.9 ± 13.7 | 71 | 86 | 98 | 59 | EC50 ([1]; read-out: GluN2D EC50): 2300 nM; GluN2D Max % [2, 27]: 374%; GluN2C Max % [20, 27]: 312%; EC50 ([21]; read-out: GluN2C EC50): 1900 nM; remaining activity at 10 µM [25]: 90%; remaining activity at 10 µM [26]: 99%
